Test results published in patent publication US20160220466A1, “HAIR TREATMENT COMPOSITION” (Lonza Ltd., priority 2015, published 2016).

Experiments:
[1] = system: level 9 bleached light brown hair; assay: Differential Scanning Calorimetry of treated hair tress (denaturation temperature); conditions: 1.5% compound in water, pH4.5; tress soaked at 35° C. for 10 minutes, dried; DSC 90-180° C. at 4° C. per minute
Protocol: A 2.5 g tress of level 9 bleached light brown hair was treated with the aforementioned composition as follows.
a) Soaked the tress in 25 ml solution of the composition at 35° C. for 10 minutes
b) Excess liquor was squeezed off
c) Dry the hair tress using a hair drier.
The hair tress was then evaluated by Differential Scanning Calorimetry (Perkin Elmer DSC6000). Samples (˜5 mg) were cut and placed into a stainless steel pan and 50 microlitres deionised Water was added before sealing. The heating profile was between 90-180° C. at 4° C. per minute.

[2] = system: level 9 bleached light brown hair; assay: Fourier Transform Infrared Spectroscopy (FTIR, UATR) of treated hair tress; conditions: 1.5% compound in water, pH4.5; tress soaked at 35° C. for 10 minutes, dried; same tresses as DSC
Protocol: (§1) The same hair tresses were also analysed by Fourier Transform Infrared Spectroscopy (FTIR) (Perkin Elmer Frontier) using an UATR attachment. […] For example, in the FTIR spectra, the peaks at 1853 cm^−1 and 1547 cm^−1 are peaks which are neither present in the AADEG itself or the untreated hair, and conversely peaks at 1888 cm^−1 and 1164 cm^−1 are present in the untreated hair, but not in the treated hair.
as §1, with “1713” for “1853”, “1481” for “1547”, “1351” for “1888”, “1303” for “1164”

SMILES: CC(=O)CC(=O)OCCOCCOC(=O)CC(C)=O [Acetoacetylated Diethylene Glycol]
- denaturation temperature (Td) of treated hair compared to hair treated with water alone [1]: significant increase
- 2nd derivative FTIR spectra of treated hair compared to untreated samples [2]: a number of new bonds

SMILES: CC(=O)CC(=O)OCCOC(=O)CC(C)=O [Acetoacetylated Ethylene Glycol]
- denaturation temperature (Td) of treated hair compared to hair treated with water alone [1]: significant increase
- 2nd derivative FTIR spectra of treated hair compared to untreated samples [2]: a number of new bonds

SMILES: CC(=O)CC(=O)OCCOCCOCCOC(=O)CC(C)=O [Acetoacetylated Triethylene Glycol]
- denaturation temperature (Td) of treated hair compared to hair treated with water alone [1]: significant increase
